Nine molecules from PubChem BioAssay (NCI) can be followed below.

Experiment in all cases: inhibition of tumour cell growth, NCI panel, 48 h
For assay [1], the system named is 786-0 renal.
Assay [2] concerns HS 578T breast.
Assay [3] has as its system KM12 colon.
Assay [4] concerns M14 melanoma.
The test system of assay [5] is SF-539 CNS.
For assay [6], the system named is SNB-75 CNS.
The test system of assay [7] is T-47D breast.
The test system of assay [8] is UACC-257 melanoma.

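Five compound concentrations were applied to cells in 96-well plates for 48 hours; endpoints were derived by simple linear interpolation of the resulting dose-response curve. Abbreviation: GI50, concentration required for 50% inhibition of growth. TGI marks complete inhibition of growth.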 Some results are limits rather than exact numbers.

As for `O=C(CSc1nc2ccc([N+](=O)[O-])cc2[nH]1)Nc1ccc(F)c(Cl)c1`, the GI50 in assay [1] is 2.84 µM; in assay [2], 2.45 µM; in assay [3], 2.83 µM; in assay [4] it was 2.81 µM; in assay [5], 3 µM; in assay [6], 1.84 µM. For the same molecule, the GI50 in assay [7] was 1.11 µM; in assay [8], 1.54 µM. The TGI came to 11.8 µM in assay [1]; 9.63 µM in assay [2]; 12.2 µM in assay [3]; 12.4 µM in assay [4]; 11.4 µM in assay [5]; 7.5 µM in assay [6]. Besides, the values for the TGI in assay [7] and in assay [8] were 10.2 µM and 6.32 µM, respectively.
`C=CC(=O)N[C@H]1C=C(C)c2c(-c3cnc4ccccc4c3)c3c(N)ncnc3n2C1`: the GI50 in assay [1] is 5.14 µM; in assay [2], 8.14 µM; in assay [3] it was 19.5 µM; in assay [4] it was 10 µM; in assay [5], 13.3 µM; in assay [6], 3.56 µM. For the same molecule, the GI50 in assay [7] is 2.22 µM; in assay [8], 13.4 µM. Moreover, the TGI was determined as 36.8 µM in assay [1]; 46.6 µM in assay [2]; 45.6 µM in assay [3]; 32.4 µM in assay [4]; 31.6 µM in assay [5]; 30.5 µM in assay [6]. Besides, the TGI is above 100 µM in assay [7] and above 80.4 µM in assay [8].
`Cc1nn(-c2ccc(F)cc2)c2ncnc(Nc3ccc(NC(=O)Nc4ccc(Cl)c(C(F)(F)F)c4)cc3)c12`: the GI50 in assay [1] is 1.98 µM; in assay [2], 2.66 µM; in assay [3], 2.66 µM; in assay [4] it was 3.03 µM; in assay [5], 1.46 µM; in assay [6], 1.32 µM. For the same molecule, the values for the GI50 in assay [7] and in assay [8] were 1.73 µM and 2.25 µM, respectively. In addition, the TGI is 5.85 µM in assay [1]; 9.47 µM in assay [2]; 10.9 µM in assay [3]; 11.6 µM in assay [4]; 3.08 µM in assay [5]; 5.41 µM in assay [6]. For the same molecule, the TGI in assay [7] turned out to be 5.27 µM; in assay [8], 5.99 µM.
For the molecule `CN1CCN(CC#Cc2cccc(C(=O)c3cnn(-c4ccc(F)cc4)c3N)c2)CC1`, the GI50 in assay [1], in assay [2], in assay [3], in assay [4], in assay [5] and in assay [6] was above 25 µM throughout. Further, the GI50 in assay [7] and in assay [8] was above 25 µM throughout. The TGI in assay [1], in assay [2], in assay [3], in assay [4], in assay [5] and in assay [6] was above 25 µM each time. Also, the TGI in assay [7] and in assay [8] was above 25 µM in each case.
As for `CCCCCCCCCCCCCC(=S)NCCCC[C@H](NC(=O)OCc1ccccc1)C(=O)Nc1ccccc1`, the GI50 in assay [1] is 5.43 µM; in assay [2] it was 4.31 µM; in assay [3], 4.33 µM; in assay [4], 4.66 µM; in assay [5], 10.7 µM; in assay [6] it was 3.85 µM. The figures for the GI50 in assay [7] and in assay [8] were 4.52 µM and 5.38 µM, respectively. For the same molecule, the TGI in assay [1], in assay [2], in assay [3], in assay [4], in assay [5] and in assay [6] was above 100 µM each time. For the same molecule, the TGI in assay [7] and in assay [8] was above 100 µM in each case.
Consider `COc1ccc(NC(=O)Nc2n[nH]c3ccccc23)cc1`, for which the GI50 in assay [1], in assay [2], in assay [3], in assay [4], in assay [5] and in assay [6] was above 100 µM each time. For the same molecule, the GI50 in assay [7] and in assay [8] was above 100 µM throughout. Moreover, the TGI in assay [1], in assay [2], in assay [3], in assay [4], in assay [5] and in assay [6] was above 100 µM throughout. The TGI in assay [7] and in assay [8] was above 100 µM each time.
Consider `COc1ccc(/C=C/C=C(/C#N)C(N)=S)cc1`, for which the GI50 in assay [1] is 33.3 µM; in assay [2] it was 62.5 µM; in assay [3], 21.3 µM; in assay [4], 18.8 µM; in assay [5], 34.8 µM; in assay [6], 29.7 µM. Also, the GI50 was 18.8 µM in assay [7] and 20.4 µM in assay [8]. The TGI is above 100 µM in assay [1]; above 100 µM in assay [2]; 89.4 µM in assay [3]; 42.7 µM in assay [4]; above 100 µM in assay [5]; 99.6 µM in assay [6]. Also, the TGI in assay [7] is 76.9 µM; in assay [8] it was 41.4 µM.
`CC(=O)c1ccc(Nc2cc(-c3ccccc3)nc3c(O)cccc23)cc1`: the GI50 was 8.8 µM in assay [1]; 27 µM in assay [2]; 5.72 µM in assay [3]; 4.58 µM in assay [4]; 21.5 µM in assay [5]; 17.9 µM in assay [6]. Besides, the figures for the GI50 in assay [7] and in assay [8] were 16.6 µM and 21 µM, respectively. Moreover, the TGI in assay [1] was 83.4 µM; in assay [2] it was above 100 µM; in assay [3] it was above 100 µM; in assay [4], 33.9 µM; in assay [5], 68.4 µM; in assay [6], 50.5 µM. Also, the TGI was found to be 63.7 µM in assay [7] and 53.4 µM in assay [8].
Consider `CC1(C)N=C(N)N=C(N)N1c1ccc(CCCCc2ccc(S(=O)(=O)F)cc2)cc1`, for which the GI50 in assay [1] is 0.64 µM; in assay [2], 13.2 µM; in assay [3], 0.601 µM; in assay [4], 1.16 µM; in assay [5], 0.458 µM; in assay [6], 2.16 µM. The values for the GI50 in assay [7] and in assay [8] were 2.09 µM and 2.07 µM, respectively. The TGI was determined as 19.1 µM in assay [1]; 46 µM in assay [2]; 13 µM in assay [3]; 23.3 µM in assay [4]; 11.6 µM in assay [5]; 20.2 µM in assay [6]. Moreover, the TGI in assay [7] stood at 10.3 µM; in assay [8] it was 18.3 µM.
